In ChEMBL document CHEMBL5608255, “Inhibitors of the Cyclic GMP-AMP Synthase (cGAS) as Potential Treatment for Autoimmune and Inflammatory Diseases” (ACS Med Chem Lett, 2024):

Experiments:
[1] = target: T1, Cyclic GMP-AMP synthase (Homo sapiens, UniProt Q8N884); experiment: Ratio of IC50 for inhibition of cGAS in human THP-1 cells using cGAMP as substrate to IC50 for inhibition of cGAS in human THP-1 cells expressed in baculovirus infected insect cells
[2] = target: T1, Cyclic GMP-AMP synthase; experiment: Inhibition of cGAS in dsDNA stimulated human Whole blood cell by measuring IFNalpha-2a production incubated for 60 mins followed by addition of double stranded DNA measured after 1350 mins by microplate reader assay; assay type: tissue-based
[3] = target: T1, Cyclic GMP-AMP synthase; experiment: Inhibition of cGAS in human THP-1 cells expressed in baculovirus infected insect cells incubated for 18 hrs by Lucia luciferase reporter assay
[4] = target: T1, Cyclic GMP-AMP synthase; experiment: Inhibition of N-terminal 6His-SUMO tagged human cGAS (1 to 522 residues) extracted from Escherichia coli BL21(DE3)pLysS cells using GTP/ATP as substrate by measuring cGAMP production incubated for 90 mins in presence of 45 base pair DNA by mass spectrometric analysis

T1 sequence (Q8N884 whole entry): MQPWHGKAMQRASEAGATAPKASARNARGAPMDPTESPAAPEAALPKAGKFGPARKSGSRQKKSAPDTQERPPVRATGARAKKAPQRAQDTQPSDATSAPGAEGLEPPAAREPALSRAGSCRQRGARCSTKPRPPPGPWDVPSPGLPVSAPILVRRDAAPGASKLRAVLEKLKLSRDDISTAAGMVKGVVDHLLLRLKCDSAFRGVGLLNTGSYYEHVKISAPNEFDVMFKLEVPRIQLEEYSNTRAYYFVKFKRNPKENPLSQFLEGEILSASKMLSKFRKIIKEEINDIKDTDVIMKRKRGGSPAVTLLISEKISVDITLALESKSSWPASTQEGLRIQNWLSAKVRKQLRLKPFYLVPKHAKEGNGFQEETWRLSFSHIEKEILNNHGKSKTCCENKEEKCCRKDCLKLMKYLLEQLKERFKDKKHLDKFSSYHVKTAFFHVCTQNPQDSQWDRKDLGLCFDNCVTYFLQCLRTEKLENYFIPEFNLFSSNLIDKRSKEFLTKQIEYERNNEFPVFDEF

| Ratio IC50 [1] | IC50 [2] [nM] | IC50 [3] [nM] | IC50 [4] [nM] | Compound |
| --- | --- | --- | --- | --- |
| > 6580 | 4 | 1.5 |  | C[C@H]1CN2CC[C@@H]1n1c(nc3ccccc31)O[C@H]1C[C@@H](C(=O)O)N(C1)c1nc(nc3c1oc1cc(Cl)ccc13)C(F)(F)CCCOCC2=O |
| 32100 | 1 | 0.44 | 2.1 | C[C@H]1CN2CC[C@H]1n1c(nc3ccccc31)O[C@H]1C[C@@H](C(=O)O)N(C1)c1nc(nc3c1oc1ccccc13)C(F)(F)COCCCCC2=O |
| > 253 | 87 | 39 |  | C[C@@H]1CN2CC[C@H]1n1c(nc3cc(Cl)ccc31)O[C@H]1C[C@@H](C(=O)O)N(C1)c1nc(nc3c1oc1ccccc13)CCOCCCC2=O |
| > 2220 | 3 | 3.1 |  | C[C@H]1CN2CC[C@@H]1n1c(nc3cc(Cl)ccc31)O[C@H]1C[C@@H](C(=O)O)N(C1)c1nc(nc3c1oc1ccccc13)C(F)(F)OCCCCC2=O |
| 15 | 186 | 500 |  | C[C@H]1CN2CC[C@@H]1n1c(nc3ccccc31)O[C@H]1C[C@@H](C(=O)O)N(C1)c1nc(nc3c1oc1ccccc13)CCCCCN(C)C2=O |
| 519 | 8 | 13 |  | C[C@H]1CN2CC[C@@H]1n1c(nc3ccccc31)O[C@H]1C[C@@H](C(=O)O)N(C1)c1nc(nc3c1oc1ccccc13)C(F)(F)CCCCC(F)(F)C2=O |
| 3930 | 17 | 2.4 |  | C[C@H]1CN2CC[C@@H]1n1c(nc3cc(Cl)ccc31)O[C@H]1C[C@@H](C(=O)O)N(C1)c1nc(nc3c1oc1cc(Cl)ccc13)CCOCCCC2=O |
| 45 | 439 | 180 |  | C[C@@H]1CN2CC[C@H]1n1c(nc3ccccc31)O[C@H]1C[C@@H](C(=O)O)N(C1)c1nc(nc3c1oc1ccccc13)CCCCCOC2=O |
| > 3560 | 5 | 2.8 | 2.8 | CC(=O)[C@@H]1C[C@H]2CN1c1nc(nc3c1oc1ccccc13)CCOCCCC(=O)N1CC[C@@H]([C@@H](C)C1)n1c(nc3cc(Cl)ccc31)O2 |
| 33 | 1580 | 180 |  | Cc1cccc2c1nc1n2[C@@H]2CCN(C[C@H]2C)C(=O)CCCCCC(F)(F)c2nc(c3oc4ccccc4c3n2)N2C[C@H](C[C@H]2C(=O)O)O1 |
